Assay results published in paper PMC12018770, “DEAD‐Box Helicase 6 Blockade in Brain‐Derived Aβ Oligomers From Alzheimer's Disease Patients Attenuates Neurotoxicity” (MedComm, 2025).
Entries after “also recorded” stand apart in the source; their conditions may differ.

Assays:
[1] = system: Aβ42 oligomers; test: Binding of biotin‐labeled short peptides to Aβ42 oligomers; details: biotin-labeled peptide probes; bands at 30 and 10 kDa for binders
Experimental: We characterized the molecular mechanisms by which DDX6 influences Aβ oligomer neurotoxicity using real‐time quaking‐induced conversion (RT‐QuIC) to determine whether DDX6 promotes the formation of Aβ fibrillar plaques and oligomers. […] Next, we performed dot blotting assays (Figure 7D,E) on the four treatment groups using the A11 antibody. […] We also assessed the cytotoxic effects of the four treatment groups on HT‐22 cell cultures using CCK‐8 assays. […] Specific gray values were calculated using Total Lab 100 (Nonlinear Dynamics, Newcastle upon Tyne, UK).
(A) Cell counting kit‐8 (CCK‐8) cytotoxicity assay (n = 3). […] Total Lab 100 analysis software was used to calculate the percentage of gray values for 157 polypeptide spots.
The Aβ42 peptide was obtained from Abcam (#ab120301, USA). Aβ42 was solubilized using 1 mM hexafluoroisopropanol (#105228; Sigma‐Aldrich, Germany) and evaporated overnight in a desiccator to form a dry film. The film was then dissolved in dimethyl sulfoxide (#D8418; Sigma‐Aldrich) to a concentration of 5 mM, mixed with phosphate‐buffered saline, and incubated for 72 h at 4°C. The GST‐DDX6 protein was synthesized by KMD Bioscience Biotech Co., Ltd. (Tianjin, China). The biotin‐labeled short peptide was synthesized by Hubei Qiangyao Biotechnology Co., Ltd. (Hubei, China).

[2] = system: Aβ42 oligomers; test: Peptide chip microarray of DDX6 peptides (1–157) with Aβ42 oligomers; details: Aβ oligomers 2.0 µg/mL, overnight 4°C; ECL; > 30% indicates effective binding site; Total Lab 100
[3] = system: human‐derived Aβ oligomers; test: Co-immunoprecipitation / Western blotting of protein-Aβ oligomer interaction in AD brain extracts; format: binding; details: IgG isotype control
Description: After rigorous data analysis with SAINTexpress, four proteins (DDX6, DSP, JUP, and HRNR) were identified as potential Aβ oligomer‐binding partners. To validate these findings, we selected DSP and DDX6 as positive controls for co‐IP analysis; tau proteins were used as negative controls. Input samples, IP, co‐IP extracts, and IgG controls were adjusted to ensure equal amounts of protein for comparison. […] The IP enrichment effect was substantial for Aβ oligomers, DDX6, DSP, and tau proteins. In the co‐IP extracts for DDX6 and DSP, Aβ oligomers were detected at approximately 55 and 30 kDa, respectively (indicated by “ [drawing 1] ”). […] Isotype control IgG was used to exclude nonspecific binding (Figure 2A).
A Co‐IP kit (Thermo Fisher Scientific; #26149, USA) was used for the assay. Antibodies (2 µg) were crosslinked to a reinforced AminoLink coupling resin (20 µL of beads) and immobilized on a Pierce spin column at room temperature. Protein extracts (1 mg) were added to the spin column and incubated overnight at 4°C with rotation. The spin column was then transferred to a new collection tube, and 60 µL of elution buffer (pH 2.8, containing tertiary amine) was added. The column was centrifuged, and the eluate was analyzed to detect the presence of the target protein.
Protein concentrations in the co‐IP extracts were measured using a bicinchoninic acid assay (#23225, Thermo Fisher Scientific, USA). For each sample, 20 µL of protein was loaded, with the following amounts of human‐derived Aβ oligomers (AD1–AD6) used: 1.8 µg, 2.0 µg, 1.9 µg, 1.6 µg, 2.0 µg, and 1.8 µg, respectively. Equivalent amounts of co‐IP extracts were loaded into the remaining lanes. A 5× loading buffer was added to the protein samples to achieve a final concentration of 1×, and the samples were incubated at 95°C for 5 min [44]. […]
B. The PVDF membrane was probed with the Aβ oligomer antibody (A11), indicating enrichment of Aβ oligomers (post-IP) with bands observed at 55 kDa and 30 kDa. Aβ oligomers were detected in the co-IP products of DDX6 (indicated by “✸”). […]

[4] = system: human‐derived Aβ oligomers; test: AP-MS with SAINTexpress scoring of binding to human‐derived Aβ oligomers; details: score 0 to 1; criteria SAINT score > 0.5 and fold change ≥ 2; AD1–AD6, n = 6
Description: Not all identified proteins bind to Aβ oligomers. Therefore, we used the SAINTexpress statistical method to screen for proteins most likely to interact with human‐derived Aβ oligomers. SAINTexpress assigns probability scores to factors interacting with target proteins, providing a value between 0 and 1, where higher scores indicate a greater likelihood of interaction with Aβ oligomers. Based on the analyzed results, we plotted the fold change on the x‐axis and SAINT scores on the y‐axis, with each point representing a protein. Proteins meeting the criteria of a SAINT score > 0.5 and fold change ≥ 2 were considered the most likely to bind Aβ oligomers (highlighted in red). Through rigorous analysis, we identified four proteins as binding partners (Figure 1C): DDX6 (SAINT score = 0.5783), DSP (SAINT score = 0.6608), JUP (SAINT score = 0.5846), and HRNR (SAINT score = 0.5246).
An aliquot of each peptide mixture was loaded onto a trap column (in‐house‐fabricated column packed with a reversed‐phase ReproSil‐Pur C18‐AQ resin, 150 µm × 15 cm, C18, 3 µm, 100 Å, Dr. Maisch GmbH, Germany) connected to an analytical column (EASY‐Spray column, […] × 75 µm ID, PepMap RSLC C18, 2 µm, 100 Å, Thermo Scientific, USA) using the autosampler of an EASY‐nLC 1200 HPLC system (Thermo Fisher Scientific). The peptides were eluted using a gradient (solvent A: 0.1% formic acid in water; solvent B: 80% acetonitrile/0.1% formic acid in water; Sigma, Germany) directly into a Q Exactive Hybrid Quadrupole‐Orbitrap mass spectrometer (Thermo Fisher Scientific). The gradient program was as follows: 4%–8% solvent B over 2 min, 8%–28% solvent B over 43 min, 28%–40% solvent B over 10 min, 40%–95% solvent B over 1 min, and 95% solvent B for 10 min. The following mass spectrometry parameters were used: spray voltage, 2.2 kV; capillary temperature, 270°C; MS resolution, 70,000 at 400 m/z; MS precursor m/z range, 300.0–1800.0 m/z; activation type, high‐energy collision dissociation; normalized collision energy, 28.0; activation time, […]; and data‐dependent MS/MS, top 20 most intense peptide ions selected based on the preview scan in the Orbitrap.
The raw MS files (Figure S5) were analyzed and searched against species‐specific protein databases using MaxQuant (v1.6.2.10). The following parameters were applied: maximum missed cleavages, 2; precursor ion mass tolerance, 20 ppm; and MS/MS tolerance, 20 ppm. Peptides and proteins were filtered to achieve a false discovery rate of < 1% using a target‐decoy database strategy, and only proteins with at least two unique peptides were reported. […] SAINT is a probabilistic method for scoring protein–protein interactions in AP‐MS experiments, enabling the identification of proteins most likely to interact with target proteins. […]

[5] = system: Aβ oligomers in AD brain; test: IHC colocalization with Aβ oligomers in AD brain sections; design: species or system human; details: AD7–AD10, n = 4; fluorescence scan over 120 µm
Description: To further validate the binding interactions between Aβ oligomers and the four proteins, we performed immunohistochemistry (IHC) on brain sections from four AD patients (AD7–AD10). We analyzed the colocalization of Aβ oligomers (red) with DDX6, JUP, HRNR, and DSP (all green), as well as 4',6‐diamidino‐2‐phenylindole (DAPI)‐stained nuclei (blue). […] We also performed fluorescence intensity scanning from left to right across stained brain tissue slices (120 µm). […] The combined results from co‐IP and IHC confirm that these four proteins can bind to Aβ oligomers.
Sections were dewaxed, subjected to antigen retrieval, and blocked. They were then incubated with primary antibody (1:500) overnight at 4°C, followed by secondary antibody (1:200). Nuclei were stained with DAPI (Beyotime; C1002, Shanghai, China) for 10 min in the dark.

[6] = system: AD patients; details: cited from earlier work

DYCLKRELLMGIFEMGWE [34–45]
interaction with Aβ42 oligomers [1]: all four binding peptides interacted with Aβ oligomers

GIDIQAVNVVINFDF [compound 133]
gray value of spot on peptide array [2]: exceeding 30%
interaction with Aβ42 oligomers [1]: all four binding peptides interacted with Aβ oligomers

GKSGAYLIPLLERLD [compound 49]
gray value of spot on peptide array [2]: exceeding 30%
interaction with Aβ42 oligomers [1]: all four binding peptides interacted with Aβ oligomers

IKPIPSNIDKSLYVAEYHSEPVED [153–156]
gray value of spot on peptide array [2]: exceeding 30%
interaction with Aβ42 oligomers [1]: all four binding peptides interacted with Aβ oligomers

KPYEINLMEELTLKG [control peptide, reference compound]
interaction with Aβ42 oligomers [1]: did not interact with Aβ oligomers

desmoplakin [DSP]
binding to Aβ oligomers by co‐IP [3]: DDX6 and DSP were also detected in Aβ oligomer co‐IP extracts; also recorded: DSP was detected in the co-IP products of Aβ oligomers
SAINT score [4]: 0.6608
colocalization with Aβ oligomers [5]: strong colocalization

hornerin [HRNR]
SAINT score [4]: 0.5246
colocalization with Aβ oligomers [5]: strong colocalization

solanezumab [reference compound]
efficacy in clinical trials (in words) ([6]; ref [11], [12], [13], [14]): failed to demonstrate efficacy in improving cognitive function during key clinical trials

tau: tau proteins were used as negative controls [reference compound]
binding to Aβ oligomers by co‐IP [3]: No apparent binding was observed; also recorded: tau was not detected in the co-IP products of Aβ oligomers

B1: lecanemab (antibody, chains of the INN, looked up, V domains shown)
VH: EVQLVESGGGLVQPGGSLRLSCSASGFTFSSFGMHWVRQAPGKGLEWVAYISSGSSTIYYGDTVKGRFTISRDNAKNSLFLQMSSLRAEDTAVYYCAREGGYYYGRSYYTMDYWGQGTTVTVSS
VL: DVVMTQSPLSLPVTPGAPASISCRSSQSIVHSNGNTYLEWYLQKPGQSPKLLIYKVSNRFSGVPDRFSGSGSGTDFTLRISRVEAEDVGIYYCFQGSHVPPTFGPGTKLEIK
brain shrinkage, share of AD patients ([6]; after 18 months of treatment, ref [16]): approximately 28%
brain hemorrhage ([6]; early AD patients, ref [15]): 17.3%
edema or effusion ([6]; early AD patients, ref [15]): 12.6%
headaches ([6]; early AD patients, ref [15]): 11.1%
delay of cognitive decline ([6]; early‐stage AD patients, ref [15]): 27%
severe side effects (in words) ([6]; some patients, ref [15], [16]): severe side effects, including brain hemorrhage, brain shrinkage, and even death

B2: junction plakoglobin (protein)
chain: MEVMNLMEQPIKVTEWQQTYTYDSGIHSGANTCVPSVSSKGIMEEDEACGRQYTLKKTTTYTQGVPPSQGDLEYQMSTTARAKRVREAMCPGVSGEDSSLLLATQVEGQATNLQRLAEPSQLLKSAIVHLINYQDDAELATRALPELTKLLNDEDPVVVTKAAMIVNQLSKKEASRRALMGSPQLVAAVVRTMQNTSDLDTARCTTSILHNLSHHREGLLAIFKSGGIPALVRMLSSPVESVLFYAITTLHNLLLYQEGAKMAVRLADGLQKMVPLLNKNNPKFLAITTDCLQLLAYGNQESKLIILANGGPQALVQIMRNYSYEKLLWTTSRVLKVLSVCPSNKPAIVEAGGMQALGKHLTSNSPRLVQNCLWTLRNLSDVATKQEGLESVLKILVNQLSVDDVNVLTCATGTLSNLTCNNSKNKTLVTQNSGVEALIHAILRAGDKDDITEPAVCALRHLTSRHPEAEMAQNSVRLNYGIPAIVKLLNQPNQWPLVKATIGLIRNLALCPANHAPLQEAAVIPRLVQLLVKAHQDAQRHVAAGTQQPYTDGVRMEEIVEGCTGALHILARDPMNRMEIFRLNTIPLFVQLLYSSVENIQRVAAGVLCELAQDKEAADAIDAEGASAPLMELLHSRNEGTATYAAAVLFRISEDKNPDYRKRVSVELTNSLFKHDPAAWEAAQSMIPINEPYGDDMDATYRPMYSSDVPLDPLEMHMDMDGDYPIDTYSDGLRPPYPTADHMLA
SAINT score [4]: 0.5846
colocalization with Aβ oligomers [5]: strong colocalization
